# According to PubChem BioAssay (NCI):
#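 Five concentrations, 48 hours, 96-well plates. The concentration for 50% growth inhibition is given as GI50. TGI marks complete inhibition of growth.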
# What was measured:
# Assay in all cases: growth of human tumour cells (NCI), 48 h
# [1] = test system: 786-0 renal
# [2] = test system: A498 renal
# [3] = test system: A549 NSCLC
# [4] = test system: ACHN renal
# [5] = test system: BT-549 breast
# [6] = test system: CAKI-1 renal
# [7] = test system: CCRF-CEM leukemia
# [8] = test system: COLO 205 colon
# [9] = test system: DU-145 prostate
# [10] = test system: EKVX NSCLC
# [11] = test system: HCC-2998 colon
# [12] = test system: HCT-116 colon
# [13] = test system: HCT-15 colon
# [14] = test system: HL-60(TB) leukemia
# [15] = test system: HOP-62 NSCLC
# [16] = test system: HOP-92 NSCLC
# [17] = test system: HS 578T breast
# [18] = test system: HT29 colon
# [19] = test system: IGROV1 ovarian
# [20] = test system: K-562 leukemia
# [21] = test system: KM12 colon
# [22] = test system: LOX IMVI melanoma
# [23] = test system: M14 melanoma
# [24] = test system: MALME-3M melanoma
# [25] = test system: MCF7 breast
# [26] = test system: MDA-MB-231 breast
# [27] = test system: MDA-MB-435
# [28] = test system: MOLT-4 leukemia
# [29] = test system: NCI-H226 lung
# [30] = test system: NCI-H23 lung
# [31] = test system: NCI-H460 lung
# [32] = test system: NCI-H522 lung
# [33] = test system: NCI/ADR-RES ovarian
# [34] = test system: OVCAR-3 ovarian
# [35] = test system: OVCAR-4 ovarian
# [36] = test system: OVCAR-5 ovarian
# [37] = test system: OVCAR-8 ovarian
# [38] = test system: PC-3 prostate
# [39] = test system: RPMI-8226 leukemia
# [40] = test system: RXF 393 renal
# [41] = test system: SF-268 CNS
# [42] = test system: SF-295 CNS
# [43] = test system: SF-539 CNS
# [44] = test system: SK-MEL-2 melanoma
# [45] = test system: SK-MEL-28 melanoma
# [46] = test system: SK-MEL-5 melanoma
# [47] = test system: SK-OV-3 ovarian
# [48] = test system: SN12C renal
# [49] = test system: SNB-19 CNS
# [50] = test system: SNB-75 CNS
# [51] = test system: SR leukemia
# [52] = test system: SW-620 colon
# [53] = test system: TK-10 renal
# [54] = test system: U251 CNS
# [55] = test system: UACC-257 melanoma
# [56] = test system: UACC-62 melanoma
# [57] = test system: UO-31 renal
smiles,measurement,setting,value
Cn1cc(-c2ccc(-c3cn(C)c4ncccc34)[nH]2)c2cccnc21,GI50,[1],4.64 µM
same,TGI,[1],38.6 µM
same,GI50,[2],> 26.3 µM
same,TGI,[2],> 100 µM
same,GI50,[3],7.84 µM
same,TGI,[3],> 100 µM
same,GI50,[4],1.62 µM
same,TGI,[4],3.08 µM
same,GI50,[5],1.07 µM
same,TGI,[5],2.79 µM
same,GI50,[6],1.44 µM
same,TGI,[6],4.03 µM
same,GI50,[7],2.27 µM
same,TGI,[7],7.56 µM
same,GI50,[8],1.82 µM
same,TGI,[8],3.84 µM
same,GI50,[9],> 100 µM
same,TGI,[9],> 100 µM
same,GI50,[10],1.62 µM
same,TGI,[10],3.34 µM
same,GI50,[11],2.51 µM
same,TGI,[11],5.89 µM
same,GI50,[12],2.81 µM
same,TGI,[12],12.4 µM
same,GI50,[13],1.69 µM
same,TGI,[13],4.63 µM
same,GI50,[14],1.87 µM
same,TGI,[14],7.48 µM
same,GI50,[15],3.02 µM
same,TGI,[15],24.8 µM
same,GI50,[16],0.448 µM
same,TGI,[16],2.13 µM
same,GI50,[17],1.95 µM
same,TGI,[17],6.42 µM
same,GI50,[18],10 µM
same,TGI,[18],> 100 µM
same,GI50,[19],4.5 µM
same,TGI,[19],53.4 µM
same,GI50,[20],1.76 µM
same,TGI,[20],8.11 µM
same,GI50,[21],2.02 µM
same,TGI,[21],4.23 µM
same,GI50,[22],2 µM
same,TGI,[22],3.93 µM
same,GI50,[23],1.94 µM
same,TGI,[23],3.97 µM
same,GI50,[24],2.7 µM
same,TGI,[24],7.12 µM
same,GI50,[25],5.54 µM
same,TGI,[25],> 100 µM
same,GI50,[26],1.79 µM
same,TGI,[26],4.08 µM
same,GI50,[27],24 µM
same,TGI,[27],> 100 µM
same,GI50,[28],10.2 µM
same,TGI,[28],> 100 µM
same,GI50,[29],> 67.1 µM
same,TGI,[29],> 100 µM
same,GI50,[30],3.18 µM
same,TGI,[30],12.7 µM
same,GI50,[31],10 µM
same,TGI,[31],> 100 µM
same,GI50,[32],0.19 µM
same,TGI,[32],0.451 µM
same,GI50,[33],2.93 µM
same,TGI,[33],9.59 µM
same,GI50,[34],1.63 µM
same,TGI,[34],3.3 µM
same,GI50,[35],0.638 µM
same,TGI,[35],1.61 µM
same,GI50,[36],1.65 µM
same,TGI,[36],3.59 µM
same,GI50,[37],2.44 µM
same,TGI,[37],6.45 µM
same,GI50,[38],1.43 µM
same,TGI,[38],3.38 µM
same,GI50,[39],1.94 µM
same,TGI,[39],6.88 µM
same,GI50,[40],1.52 µM
same,TGI,[40],3.65 µM
same,GI50,[41],2.23 µM
same,TGI,[41],5.45 µM
same,GI50,[42],4.28 µM
same,TGI,[42],12.1 µM
same,GI50,[43],1.59 µM
same,TGI,[43],3.32 µM
same,GI50,[44],1.91 µM
same,TGI,[44],4.04 µM
same,GI50,[45],3.33 µM
same,TGI,[45],10.9 µM
same,GI50,[46],1.6 µM
same,TGI,[46],3.47 µM
same,GI50,[47],25.1 µM
same,TGI,[47],> 100 µM
same,GI50,[48],7.26 µM
same,TGI,[48],> 100 µM
same,GI50,[49],2.65 µM
same,TGI,[49],8.03 µM
same,GI50,[50],1.82 µM
same,TGI,[50],4.34 µM
same,GI50,[51],1.62 µM
same,TGI,[51],> 22.1 µM
same,GI50,[52],2.32 µM
same,TGI,[52],5.34 µM
same,GI50,[53],1.48 µM
same,TGI,[53],2.88 µM
same,GI50,[54],1.66 µM
same,TGI,[54],3.17 µM
same,GI50,[55],2.93 µM
same,TGI,[55],19.6 µM
same,GI50,[56],1.63 µM
same,TGI,[56],3.76 µM
same,GI50,[57],1.57 µM
same,TGI,[57],3.01 µM
